Legend:
[1] = Viscous fluidity test (bulk density, angle of repose); assay type: physicochemical; settings: for angle of repose: funnel method, tan α=H/R; for most apparent density (bulk density): without applying any external force
Procedure: A measuring container was filled with crystalline form B (1.97 g) of the compound of Formula (I), and the volume was determined to be 7.62 ml without applying any external force. The most apparent density (i.e., bulk density) was calculated to be 0.26 g/ml. The powder was slowly added into a funnel from above so that the material leaking from the bottom of the funnel formed a conical stack on the horizontal surface, and the diameter of the bottom of the cone (2R) and the height of the cone (H) were measured to be 3.59 cm and 1.79 cm, respectively. And the angle of repose was calculated to be 45 degrees according to the formula for calculating the angle of repose (tan α=H/R).
The most apparent density (i.e., bulk density) was calculated to be 0.43 g/ml. The powder was slowly added into a funnel from above so that the material leaking from the bottom of the funnel formed a conical stack on the horizontal surface, and the diameter of the bottom of the cone (2R) and the height of the cone were measured to be 2.91 cm and 1.46 cm, respectively. And the angle of repose was calculated to be 45 degrees according to the formula for calculating the angle of repose (tan α=H/R).

[2] = Physicochemical stability (high temperature, high humidity, light; XRPD and HPLC); settings: XRPD
hERG potassium channel = molecular target: T1, hERG potassium channel (Homo sapiens, UniProt Q12809); assay: hERG test (Predictor hERG Fluorescence Polarization Assay Kit); assay type: binding
T1 construct: purchased Thermo Fisher
Procedure: The effects of the crystalline forms of the compound of Formula (I) on hERG potassium channel were determined using a biochemical hERG assay kit based on fluorescence polarization technology (Predictor™ hERG Fluorescence Polarization Assay Kit, Thermo Fisher) to assess the potential of the crystalline form of the compound of Formula (I) in inducing cardiac QT interval prolongation.

[3] = Cytotoxicity (MTS) in HEK293; assay type: cell-based; settings: HEK293 cells, human embryonic kidney cell, 40 h incubation
Procedure: (§1) The cells were plated at a concentration of 2×10^4 cells/well and incubated for 4 h at 37° C. in a 5% CO2 incubator. The crystalline form of the compound of Formula (I) of the present invention was added, and incubation was continued for 40 h. The incubation solution was removed, and a complete medium was added (100 μl/well) to each test well and incubated in the incubator for 0.5 to 1 h. Then, MTS solution was added (10 μl/well) thereto, and incubation was continued for 4 h in the incubator. The absorbance at 450 nm was measured, and the IC50 value was calculated.

[4] = Cytotoxicity (MTS) in HK-2; assay type: cell-based; settings: HK-2 cells, human proximal tubular cell, 40 h incubation
Procedure: as §1

[5] = Cytotoxicity (MTS) in N2a; assay type: cell-based; settings: mouse, N2a neuroblastoma cells, neuroblastoma cell, 40 h incubation
Procedure: as §1

JAK3 = molecular target: T2, JAK3 (Homo sapiens, UniProt P52333); assay: JAK3 enzymatic activity inhibition assay (HTRF KinEASE-TK); assay type: biochemical
T2 sequence (P52333 1-1124): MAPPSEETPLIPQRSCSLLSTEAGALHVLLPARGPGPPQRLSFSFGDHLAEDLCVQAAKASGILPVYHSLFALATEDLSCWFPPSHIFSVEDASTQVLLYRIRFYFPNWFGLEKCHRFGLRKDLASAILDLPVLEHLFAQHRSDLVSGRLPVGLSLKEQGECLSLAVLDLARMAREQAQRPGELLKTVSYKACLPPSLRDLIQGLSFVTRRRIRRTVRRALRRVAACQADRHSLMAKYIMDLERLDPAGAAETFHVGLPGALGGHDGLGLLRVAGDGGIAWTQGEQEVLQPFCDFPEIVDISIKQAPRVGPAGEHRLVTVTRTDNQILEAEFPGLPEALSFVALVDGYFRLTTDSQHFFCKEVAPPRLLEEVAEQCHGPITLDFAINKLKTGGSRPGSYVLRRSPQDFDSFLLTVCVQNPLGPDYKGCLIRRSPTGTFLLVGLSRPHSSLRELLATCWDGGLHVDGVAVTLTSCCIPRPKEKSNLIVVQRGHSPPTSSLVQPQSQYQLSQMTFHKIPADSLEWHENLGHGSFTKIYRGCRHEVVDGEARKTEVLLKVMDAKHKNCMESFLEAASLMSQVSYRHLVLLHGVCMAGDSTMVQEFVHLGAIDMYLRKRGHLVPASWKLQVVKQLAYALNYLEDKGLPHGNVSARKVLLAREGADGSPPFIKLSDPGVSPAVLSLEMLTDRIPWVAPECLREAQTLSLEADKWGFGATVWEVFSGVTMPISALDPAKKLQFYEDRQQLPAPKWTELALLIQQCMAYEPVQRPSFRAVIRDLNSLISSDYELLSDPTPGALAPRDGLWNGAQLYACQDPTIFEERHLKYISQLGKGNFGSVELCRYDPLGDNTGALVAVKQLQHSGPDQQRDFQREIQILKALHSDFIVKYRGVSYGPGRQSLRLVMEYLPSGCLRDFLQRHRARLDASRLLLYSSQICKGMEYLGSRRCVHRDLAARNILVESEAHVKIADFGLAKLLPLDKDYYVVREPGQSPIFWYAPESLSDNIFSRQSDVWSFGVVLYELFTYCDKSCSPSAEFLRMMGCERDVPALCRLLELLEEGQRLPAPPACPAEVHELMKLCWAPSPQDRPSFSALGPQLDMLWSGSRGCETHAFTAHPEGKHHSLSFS
Procedure: (§2) The crystalline form of the compound of Formula (I), an enzyme, a substrate and ATP were diluted to desired concentrations with the buffer in the HTRF® KinEASE™-TK kit (Cisbio). The former three agents were added into a multiple well plate, and incubated at room temperature after being mixed homogeneously. ATP was added to initiate the kinase reaction, and incubation at room temperature was performed. The test reagent in the kit was used to terminate the reaction, and incubation was continued at room temperature. After the incubation was completed, fluorescence signals at 620 nm and 665 nm were measured using a BMG PHERAstar FS microplate reader, and the half inhibitory concentration (IC50) values were calculated.

TYK2 = TYK2 (Homo sapiens, UniProt P29597); assay: TYK2 enzymatic activity inhibition assay (HTRF KinEASE-TK); assay type: biochemical
Procedure: as §2

[6] = test system: STAT3 phosphorylation in Hep3B cells; assay: Effect on JAK/STAT signaling pathway in Hep3B cells (IL-6 induced p-STAT3, AlphaLISA); assay type: cell-based; settings: Homo sapiens, 0.5 h, IL-6 stimulation 30 min
Procedure: After incubating the crystalline form of the compound of Formula (I) of the present invention with Hep3B cells in a 37° C., 5% CO2 incubator for 15 min, […] IL-6 was added. Incubation was continued for 30 min, and the cells were lysed. The lysate was added to AlphaLISA SureFire Ultra p-STAT3 (Tyr705) assay kit (PerkinElmer), incubated at room temperature in dark, and the signals emitted by the receptor microbeads after energy absorption were measured, and the half inhibitory concentration (IC50) of inhibiting STAT3 phosphorylation was calculated.

[7] = test system: Collagen-Induced Arthritis (CIA) model; assay: Efficacy in collagen-induced arthritis (CIA) model in rats; assay type: in vivo, rat; parameters: Mean pathological score, Joint inflammation (X ± SD) / Mean pathological score, Joint cartilage erosion (X ± SD) / Mean pathological score, Synovial hyperplasia/pannus (X ± SD): scale not given here; settings: for Mean pathological score, Joint cartilage erosion (X ± SD) / Mean pathological score, Joint inflammation (X ± SD) / Mean pathological score, Synovial hyperplasia/pannus (X ± SD): hind paw joints
Procedure: After female Lewis rats were immunized twice with bovine type II collagen to form a CIA model, the rats were randomly divided into 4 groups (the vehicle group, and the groups of the crystalline form of the compound of Formula (I) of the present invention (1 mg/kg, 3 mg/kg, 10 mg/kg), respectively), and unmodeled rats were taken as the normal group. The corresponding drugs were administered by gavage once a day for 14 days (D15-D28). The hind paw was scored for arthritis index during the administration (the results are shown in Table 5); and after the end of the experiment, the ankle joint was taken for pathologic analysis (the average pathological scores of the hind paw joints of the rats are shown in Table 6).

[8] = high humidity (92.5%) for 5 days
[9] = high temperature (60° C.) for 5 days
[10] = 1 mg/kg gavage once a day for 14 days
[11] = 3 mg/kg gavage once a day for 14 days
[12] = 10 mg/kg gavage once a day for 14 days

T1 sequence (Q12809 whole entry): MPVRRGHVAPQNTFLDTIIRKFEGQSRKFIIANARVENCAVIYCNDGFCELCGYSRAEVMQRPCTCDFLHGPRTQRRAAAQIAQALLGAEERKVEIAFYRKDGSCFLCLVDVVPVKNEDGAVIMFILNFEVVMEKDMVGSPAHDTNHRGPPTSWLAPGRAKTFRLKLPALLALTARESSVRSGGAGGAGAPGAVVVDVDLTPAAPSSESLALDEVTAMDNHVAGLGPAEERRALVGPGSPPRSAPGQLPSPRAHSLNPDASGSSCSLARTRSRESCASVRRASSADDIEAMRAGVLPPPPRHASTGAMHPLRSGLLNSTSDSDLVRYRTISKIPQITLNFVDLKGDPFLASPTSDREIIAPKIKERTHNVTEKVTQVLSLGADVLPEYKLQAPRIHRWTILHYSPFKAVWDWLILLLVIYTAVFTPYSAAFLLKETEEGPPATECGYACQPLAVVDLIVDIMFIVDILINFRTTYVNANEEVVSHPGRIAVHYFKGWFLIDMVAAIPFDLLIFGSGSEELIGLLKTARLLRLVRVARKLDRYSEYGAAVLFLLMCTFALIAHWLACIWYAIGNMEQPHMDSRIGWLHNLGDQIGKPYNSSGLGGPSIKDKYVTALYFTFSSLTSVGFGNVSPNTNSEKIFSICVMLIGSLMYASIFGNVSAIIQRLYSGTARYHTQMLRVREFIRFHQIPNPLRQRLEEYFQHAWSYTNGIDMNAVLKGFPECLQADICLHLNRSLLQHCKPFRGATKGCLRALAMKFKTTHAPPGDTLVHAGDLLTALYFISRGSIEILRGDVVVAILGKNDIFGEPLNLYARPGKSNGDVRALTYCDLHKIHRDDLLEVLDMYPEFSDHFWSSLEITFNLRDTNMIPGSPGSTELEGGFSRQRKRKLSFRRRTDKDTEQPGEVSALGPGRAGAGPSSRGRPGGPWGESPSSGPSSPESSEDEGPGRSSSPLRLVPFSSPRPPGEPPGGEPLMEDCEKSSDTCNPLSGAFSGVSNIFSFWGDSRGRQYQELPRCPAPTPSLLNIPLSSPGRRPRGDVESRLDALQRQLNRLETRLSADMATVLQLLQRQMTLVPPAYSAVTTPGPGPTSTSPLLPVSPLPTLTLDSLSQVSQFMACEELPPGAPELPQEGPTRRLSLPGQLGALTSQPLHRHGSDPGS
TYK2, sequence (P29597 whole entry, species assumed): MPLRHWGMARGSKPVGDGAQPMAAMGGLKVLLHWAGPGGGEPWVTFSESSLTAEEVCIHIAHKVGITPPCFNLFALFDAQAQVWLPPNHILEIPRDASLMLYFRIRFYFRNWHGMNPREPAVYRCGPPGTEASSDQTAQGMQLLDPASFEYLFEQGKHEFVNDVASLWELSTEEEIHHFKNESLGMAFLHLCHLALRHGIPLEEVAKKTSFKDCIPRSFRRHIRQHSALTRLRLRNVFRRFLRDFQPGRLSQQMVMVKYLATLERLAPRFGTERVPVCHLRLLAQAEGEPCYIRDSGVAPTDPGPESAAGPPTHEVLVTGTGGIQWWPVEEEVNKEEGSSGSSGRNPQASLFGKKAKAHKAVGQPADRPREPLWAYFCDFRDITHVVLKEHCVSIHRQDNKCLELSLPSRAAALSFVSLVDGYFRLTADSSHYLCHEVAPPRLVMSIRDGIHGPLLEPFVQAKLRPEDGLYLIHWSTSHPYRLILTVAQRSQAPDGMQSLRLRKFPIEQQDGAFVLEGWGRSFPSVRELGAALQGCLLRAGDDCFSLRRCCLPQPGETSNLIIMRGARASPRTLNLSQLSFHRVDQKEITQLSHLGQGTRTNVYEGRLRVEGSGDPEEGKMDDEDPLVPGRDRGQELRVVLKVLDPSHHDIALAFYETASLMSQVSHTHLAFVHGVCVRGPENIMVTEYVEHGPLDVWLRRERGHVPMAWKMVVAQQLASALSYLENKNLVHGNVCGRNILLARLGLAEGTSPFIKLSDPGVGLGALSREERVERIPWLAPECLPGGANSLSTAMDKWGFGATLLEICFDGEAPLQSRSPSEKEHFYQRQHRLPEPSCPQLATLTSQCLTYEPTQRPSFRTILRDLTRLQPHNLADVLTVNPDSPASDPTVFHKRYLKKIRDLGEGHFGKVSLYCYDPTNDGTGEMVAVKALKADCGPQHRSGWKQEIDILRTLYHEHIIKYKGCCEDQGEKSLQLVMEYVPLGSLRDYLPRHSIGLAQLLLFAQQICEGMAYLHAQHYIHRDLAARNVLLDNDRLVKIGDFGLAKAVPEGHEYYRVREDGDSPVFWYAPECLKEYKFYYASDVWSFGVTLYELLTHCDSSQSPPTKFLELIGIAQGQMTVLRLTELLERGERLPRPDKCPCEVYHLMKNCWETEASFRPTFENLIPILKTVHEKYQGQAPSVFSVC

CCS(=O)(=O)N1CC(CC#N)(n2cc(-c3ccnc4[nH]ccc34)cn2)C1 [Crystalline form B, 2-(3-(4-(1H-pyrrolo[2,3-b]pyridin-4-yl)-1H-pyrazol-1-yl)-1-(ethylsulfonyl)azetidin-3-yl)acetonitrile]
particle fluidity [1]: good particle fluidity | angle of repose [1]: 45 degrees | most apparent density (bulk density) [1]: 0.26 g/mL | Changes in crystalline form [2, 8]: No | Changes in crystalline form [2, 9]: No | Changes in crystalline form ([2]; light condition for 5 days): No

CCS(=O)(=O)N1CC(CC#N)(n2cc(-c3ccnc4[nH]ccc34)cn2)C1 [Crystalline form A, 2-(3-(4-(1H-pyrrolo[2,3-b]pyridin-4-yl)-1H-pyrazol-1-yl)-1-(ethylsulfonyl)azetidin-3-yl)acetonitrile]
particle fluidity [1]: good particle fluidity | angle of repose [1]: 45 degrees | most apparent density (bulk density) [1]: 0.43 g/mL | Changes in crystalline form [2, 8]: No | Changes in crystalline form [2, 9]: No | Changes in crystalline form ([2]; light condition for 5 days): No | inhibition at 2 h, 30 µM (hERG potassium channel; human, probe tracer with high hERG affinity, at 30 μM, read-out: hERG inhibition rate): < 50% | IC50 (hERG potassium channel; test concentration 3, 10 and 30 μM, 25° C., 2 h): > 30 µM | IC50 at 40 h [3]: > 50 µM | IC50 at 40 h [4]: 23.1 µM | IC50 at 40 h [5]: 33.6 µM | IC50 (JAK3): 0.0161 ± 0.00155 µM | IC50 (TYK2): 0.0228 ± 0.00403 µM | IC50 [6]: 0.123 ± 0.0183 µM | Effect on mean pathological score of synovial hyperplasia/pannus (in words) ([7]; 1 mg/kg): to some extent | Effect on mean pathological scores of joint inflammation and joint cartilage erosion (in words) ([7]; 1 mg/kg): significantly reduce | Mean pathological score, Joint cartilage erosion (X ± SD) [7, 10]: 5.10 ± 1.52 | Mean pathological score, Joint inflammation (X ± SD) [7, 10]: 4.00 ± 1.25 | Mean pathological score, Synovial hyperplasia/pannus (X ± SD) [7, 10]: 6.90 ± 0.99 | Effect on mean pathological scores of joint inflammation, joint cartilage erosion and synovial hyperplasia/pannus (in words) ([7]; 3 mg/kg): significantly reduce | Mean pathological score, Joint cartilage erosion (X ± SD) [7, 11]: 2.20 ± 1.93 | Mean pathological score, Joint inflammation (X ± SD) [7, 11]: 2.60 ± 1.90 | Mean pathological score, Synovial hyperplasia/pannus (X ± SD) [7, 11]: 4.80 ± 1.40 | Effect on mean pathological scores of joint inflammation, joint cartilage erosion and synovial hyperplasia/pannus (in words) ([7]; 10 mg/kg): significantly reduce | Mean pathological score, Joint cartilage erosion (X ± SD) [7, 12]: 0.10 ± 0.32 | Mean pathological score, Joint inflammation (X ± SD) [7, 12]: 0.30 ± 0.67 | Mean pathological score, Synovial hyperplasia/pannus (X ± SD) [7, 12]: 2.20 ± 0.42

Source: patent US11066403B2, “Solid form of azetidine derivative and preparation method therefor and use thereof” (SICHUAN KELUN-BIOTECH BIOPHARMACEUTICAL CO., LTD., priority 2017, dated 2021)
